According to patent publication US9896487B2, “Amyloidosis-inhibiting polypeptides and their use” (UNIVERSITY OF WASHINGTON THROUGH ITS CENTER FOR …, priority 2013, dated 2018):
“Also recorded” adds a separate entry of the source. Read-outs that look alike come from different tables or passages of the source. [ ]: non-standard residue; d: D form.

Assays:
[1] = system: toxic oligomer; assay: Binding of toxic oligomer by peptide immobilized to agarose beads (Examples 2 and 3)
Protocol: Peptide designs were immobilized to the Pierce Amino Link resin following the manufacturer's instructions. Peptides were immobilized in a volume of 200 μL of coupling buffer (100 mM sodium phosphate, 150 mM sodium chloride, pH 7.2) and 2 μL cyanoborohydride solution (5 M sodium cyanoborohydride in 1 M NaOH) at a concentration of 358 μM overnight at 4° C. Any residual active sites were blocked with 400 μL quenching buffer (1 M tris hydrochloride, pH 7.4) and 4 μL cyanoborohydride solution for 4 hours at 25° C. Binding experiments were performed from 200 μL amyloid solution (5 μM Aβ or 20 μM TTR (monomer) diluted to the desired concentration in coupling buffer), which was allowed to bind to the peptide-bound agarose beads for 2 h at 25° C. The solution was then collected by centrifugation (flow through, FT). The beads were resuspended in 300 μL coupling buffer, vortexed to obtain an uniform slurry, and the solution was again collected by centrifugation (wash 1, W1). The wash step was performed an additional five times (W2-W6). One final wash step was performed but after resuspending the resin, the solution was allowed to sit for 5 minutes before centrifugation (W7). The resin was next resuspended in 100 μL 2M guanidine hydrochloride, incubated for 5 minutes at room temperature, then collected as before. This was performed twice (E1-E2). The resin was washed again with 300 μL coupling buffer (W8) followed by two elution steps with 6M guanidine hydrochloride (E3-E4). One final wash step was performed with 300 μL coupling buffer (W9). All collected eluents were analyzed by applying triplicate 1 μL spots to nitrocellulose, and then performing standard dot blot analysis as described by Kayed et al. (9) with an anti-TTR (sc-13098, Santa Cruz Biotechnology, Santa Cruz, Calif.) or anti-Aβ (ab39377; Abeam Inc, Cambridge, Mass.) primary antibody diluted 1:1.000 in 5% or 10% nonfat milk, respectively.
Three α-sheet designs are addressed in Example 1, but many more have been evaluated using these same assays and structural methods. FIG. 5 contains a list of other designed α-sheet peptides, both linear and cyclic (specifically peptides #3-5 and #8-9), as well as other control, non-α-sheet designs (peptides #17-18, 20). In addition, FIG. 5 contains ‘control’ designs aimed at reverse engineering the α1 design, which is presented in more detail in Example 3. […] Random primary sequences of amino acids are active in the polypeptides of the invention; these same primary sequences are not active if the polypeptide is provided in an entirely L-amino acid peptide or if the L/D amino acids are randomly distributed within the polypeptide such that they are not alternating (i.e. if they are not polypeptides according to the invention). […] They also all inhibit aggregation and/or bind the toxic oligomer. Some of the polypeptides are insoluble and the solution assay can't be performed, but they do bind the targeted toxic oligomer when they are immobilized to agarose beads to promote solubilization. • Thus, this provides further evidence that the primary amino acid sequence per se is not determining structure and activity, the L/D patterning is. However, the sequence modulates the activity and solubility properties. • Both cyclic and linear designs with different sequences form α-sheet polypeptides, inhibit aggregation, and bind the toxic oligomer. […] (See peptides #1 and #7.) Note, however, that the charges can modulate the level of activity. • Next, consider all 14 designed peptides with the L/D turn template, they are all active. Some have issues with solubility but they all form α-sheet and are active amyloid inhibitors in solution and/or binding of the toxic oligomer. These designs are both linear and cyclic peptides designed to be hairpins. The sequence identity relative to ldas90 (peptide #1) ranges from 9-91% across these 14 designs with an average of 43%. […]

[2] = biological target: T1, transthyretin (TTR) (Homo sapiens, UniProt P02766); assay: TTR fibrillization assay (Congo red binding); type: biochemical; details: peptide without regard to TTR; prevents solution TTR assay
T1 construct: purchased Lee Biosolutions, St. Louis Mo; 496-11
Protocol: Aliqouts of transthyretin (TTR) (496-11; Lee Biosolutions, St. Louis Mo.) were made from a 1 mg/mL solution 20 mM ammonium carbonate, pH 8. Aliquots were lyophilized and stored at −18° C. Prior to use, TTR was dissolved to 80 μM (monomer) in acetate buffer (50 mM potassium acetate, 100 mM potassium chloride pH 4.5) and sonicated for 10 minutes. The stock solution was centrifuged before use. Peptide designs were added to stock TTR to a final TTR concentration of 40 μM (monomer) in acetate buffer (pH 4.5) in 500 μL microcentrifuge tubes, which were incubated at 37° C. Periodically, samples were collected from the TTR:peptide mixture by briefly centrifuging, and then carefully pipetting the solution up and down prior to withdrawing a 10 μL sample and diluting it in 190 μL of 10 μM Congo red in an individual well of a 96-well assay plate. Each measurement was performed in triplicate. Absorbance measurements were taken at 477 and 540 nm. Relative Congo red binding was determined using the method of Klunk et al. using the relationship: rCb=(Abs540/25,295)−(Abs477/46,306) (40). All datapoints were normalized to the value recorded for TTR alone pH 4.5 at 48 hrs.
The “control” designs were tested as general inhibitors against the Amyloid β 1-42 peptide (Aβ) (panel A), the islet amylin polypeptide (IAPP, or amylin, which is implicated in type 2 diabetes) (panel B), and transthyretin (TTR) (panel C) amyloidosis (FIG. 6). […] As described in Example 1, a Thioflavin T (ThT) fluorescence assay was used to monitor Aβ and IAPP aggregation. A Congo Red dye-binding assay was used to monitor TTR fibrillization. For inhibition against Aβ, peptides were co-incubated at 4-fold excess of Aβ at RT in neutral pH buffer containing ThT. Note that the results for α1 differ somewhat from what are included in Example 1 because the assay conditions were altered slightly to slow the process down to favor oligomerization of Aβ (rather than fibril elongation) by lowering the temperature to 25° C. […] For inhibition against IAPP, peptides were co-incubated at 8-fold excess of IAPP at 37° C. in neutral pH buffer containing 20 μM ThT. For inhibition against TTR, peptides were co-incubated at 10-fold excess of monomeric TTR.

[3] = system: Aβ, IAPP and TTR amyloidosis / toxic oligomer; assay: Inhibitory activity summary: inhibition of aggregation and/or binding of toxic oligomer; type: biochemical; details: for inhibition of aggregation (FIG. 6): Aβ, IAPP, TTR panels; for inhibitor quality compared with ldas90: FIG. 6 / FIG. 7
Protocol: In addition, FIG. 5 contains ‘control’ designs aimed at reverse engineering the α1 design, which is presented in more detail in Example 3. […] These designs are both linear and cyclic peptides designed to be hairpins.
The “control” designs were tested as general inhibitors against the Amyloid β 1-42 peptide (Aβ) (panel A), the islet amylin polypeptide (IAPP, or amylin, which is implicated in type 2 diabetes) (panel B), and transthyretin (TTR) (panel C) amyloidosis (FIG. 6). […] As described in Example 1, a Thioflavin T (ThT) fluorescence assay was used to monitor Aβ and IAPP aggregation. A Congo Red dye-binding assay was used to monitor TTR fibrillization. For inhibition against Aβ, peptides were co-incubated at 4-fold excess of Aβ at RT in neutral pH buffer containing ThT. […] For inhibition against IAPP, peptides were co-incubated at 8-fold excess of IAPP at 37° C. in neutral pH buffer containing 20 μM ThT. For inhibition against TTR, peptides were co-incubated at 10-fold excess of monomeric TTR.
The data in FIG. 6 were normalized to ThT fluorescence of the negative (uninhibited) control (black squares). Inhibition traces are ordered vertically according to sequence identity to α1 (see Table 1). Sigmoidal fits to data are included. Controls are identical throughout a single panel, and traces for inhibition samples are colored while the uninhibited aggregation profiles are in black.

| Substance | binds toxic oligomer when immobilized [1] | Congo red binding by the peptide itself [2] | Inhibits Aggregation and/or binds oligomer? [3] | inhibition of aggregation (FIG. 6) [3] | other results |
| --- | --- | --- | --- | --- | --- |
| Ac-AQQiEcItNVWDKEItMyFnVSE-NH2 (Ac-AQQ[dI]E[dC]L[dT]NVWDKEL[dT]M[dY]F[dN]VSE-NH2; not fully specified) [peptide #11] | do bind toxic oligomer | bind Congo Red | yes | weak | Inhibits Aggregation and/or binds oligomer? ([3]; listed as Control 3): active |
| Ac-MNWESkGEwIRMRYGtmLSNGnM-NH2 (Ac-MNWES[dK]GE[dW]LRMRYG[dT][dM]LSNG[dN]M-NH2; SMILES CSCC[C@H](NC(=O)[C@@H](CC(N)=O)NC(=O)CNC(=O)[C@H](CC(N)=O)NC(=O)[C@H](CO)NC(=O)[C@H](CC(C)C)NC(=O)[C@@H](CCSC)NC(=O)[C@H](NC(=O)CNC(=O)[C@H](Cc1ccc(O)cc1)NC(=O)[C@H](CCCNC(=N)N)NC(=O)[C@H](CCSC)NC(=O)[C@H](CCCNC(=N)N)NC(=O)[C@H](CC(C)C)NC(=O)[C@@H](Cc1c[nH]c2ccccc12)NC(=O)[C@H](CCC(=O)O)NC(=O)CNC(=O)[C@@H](CCCCN)NC(=O)[C@H](CO)NC(=O)[C@H](CCC(=O)O)NC(=O)[C@H](Cc1c[nH]c2ccccc12)NC(=O)[C@H](CC(N)=O)NC(=O)[C@H](CCSC)NC(C)=O)[C@H](C)O)C(N)=O) [peptide #19] | does not | bind Congo Red | no | – | Inhibits Aggregation and/or binds oligomer? ([3]; listed as Control2): inactive |
| Ac-RGEMNLSWMNEYSGWTMNLKMGR-NH2 (not fully specified (residues 4, 6, 8, 16, 18, 20); printed as Ac-RGEMNLSWMNEYSGWTMNLKMGR-NH2) [peptide #20, all L-amino acid version of ldas90] | – | – | no | – | Inhibits Aggregation and/or binds oligomer? ([3]; listed as llas90): inactive |
| Ac-RGEaWmYiKNNLSETmMsNmWGR-NH2 [peptide #12] | – | bind Congo Red | yes | inhibits aggregation | binds toxic oligomer when immobilized ([1]; listed as Control 6): do bind toxic oligomer; binds toxic oligomer when immobilized ([1]; listed as Control6): binds the toxic oligomer; Inhibits Aggregation and/or binds oligomer? ([3]; listed as Control6): active |
| Ac-RGNwNeSkMNEYSGWmLmLtMGR-NH2 (Ac-RGN[dW]N[dE]S[dK]MNEYSGW[dM]L[dM]L[dT]MGR-NH2; SMILES CSCC[C@H](NC(=O)[C@@H](CCCCN)NC(=O)[C@H](CO)NC(=O)[C@@H](CCC(=O)O)NC(=O)[C@H](CC(N)=O)NC(=O)[C@@H](Cc1c[nH]c2ccccc12)NC(=O)[C@H](CC(N)=O)NC(=O)CNC(=O)[C@H](CCCNC(=N)N)NC(C)=O)C(=O)N[C@@H](CC(N)=O)C(=O)N[C@@H](CCC(=O)O)C(=O)N[C@@H](Cc1ccc(O)cc1)C(=O)N[C@@H](CO)C(=O)NCC(=O)N[C@@H](Cc1c[nH]c2ccccc12)C(=O)N[C@H](CCSC)C(=O)N[C@@H](CC(C)C)C(=O)N[C@H](CCSC)C(=O)N[C@@H](CC(C)C)C(=O)N[C@@H](C(=O)N[C@@H](CCSC)C(=O)NCC(=O)N[C@@H](CCCNC(=N)N)C(N)=O)[C@H](C)O) [peptide #6] | binds the toxic oligomer | – | yes | good inhibitor | inhibitor quality compared with ldas90 [3]: as good as ldas90 (peptide #1) with capped ends; also recorded: better than ldas90 with charged ends (peptide #7); inhibitor quality compared with ldas90 ([3]; listed as Control5): as active; Inhibits Aggregation and/or binds oligomer? ([3]; listed as Control5): active |
| Ac-WRPwAiDgMNTBKQRkAsVyLQP-NH2 [peptide #13] | do bind toxic oligomer | bind Congo Red | yes | – | Inhibits Aggregation and/or binds oligomer? ([3]; listed as Control 4): active |
| RGEmNlSwMNEYSGWtMnLkMGR [peptide #7] | – | – | demonstrate activity | – | – |
